The source of these data is patent US11442057B2, “Method for screening anticancer agent inhibiting binding of AIMP2-DX2 and HSP70” (MEDICINAL BIOCONVERGENCE RESEARCH CENTER, priority 2016, dated 2022).

For one data set, the system named is AIMP2-DX2 protein. In words: Western blot of AIMP2-DX2 protein expression level in H460 cells. The conditions noted are these: HSP70 or HSP90 inhibitor treatment. It counts as cell-based, human. In general terms: Immunoblotting shows a protein as a band on a membrane.
Data set [1] concerns 293T cells overexpressing Strep-AIMP2-DX2. In words: MTT assay of cell growth by AIMP2-DX2 in 293T cells overexpressing Strep-AIMP2-DX2. It counts as cell-based. To be noted: inhibitors 12 hours or si-HSP70. As to the method:
The HSP70 inhibitors Pifithrin-u (PES), and VER155008 (VER) and the HSP90 inhibitors Geldanamycin (Gel) and PUH71(Pu) were treated on 293T cells overexpressing Strep-AIMP2-DX2 and 293T cells not over-expressing, respectively for 12 hours, and MTT (Amresco) assay was performed. Each experiment was performed three times independently. Strep-AIMP2-DX2 was overexpressed in 293T cells, in which HSP70 expression was reduced using HSP70-specific si-RNA (si-HSP70), and MTT assay was performed. Each experiment was performed three times independently.
(Tetrazolium dyes change colour on reduction, which living cells bring about.)

Another data set concerns A549 (Lung cancer cells). In words: MTT assay of cell activity in A549 lung cancer cells. It counts as cell-based. To be noted: 2.5, 5, 10, 20, 40 uM.
A further data set deals with H460 cells xenograft. In words: H460 xenograft in Balb/c nude mice. It counts as in vivo. The procedure:
After the end of the experiment, the tumors were separated and weighed. The body weight and tumor size of the experimental animals were measured twice a week.

In data set [2] the test system is WI-26 (Normal lung cells). The experiment in a line: MTT assay of cell activity in WI-26 normal lung cells. To be noted: 2.5, 5, 10, 20, 40 uM.

For the compound `NS(=O)(=O)C#Cc1ccccc1` [PES, Pifithrin-u], the “expression level of AIMP2-DX2 protein after inhibitor treatment” value (from here on “expression level … after inhibitor treatment”) with AIMP2-DX2 protein is recorded as “decreased”. In addition, the “increase in cell growth by AIMP2-DX2” value in data set [1] was “No increase in cell growth by AIMP2-DX2 was observed”.

`CC(C)NCCCn1c(Sc2cc3c(cc2I)OCO3)nc2c(N)ncnc21` [PU, PUH71]: in the data set on AIMP2-DX2 protein, the “expression level … after inhibitor treatment” value is “not affected”.

Take `N#Cc1ccc(COC[C@H]2O[C@@H](n3c(NCc4ccc(Cl)c(Cl)c4)nc4c(N)ncnc43)[C@H](O)[C@@H]2O)cc1` [VER, VER155008]: the “expression level … after inhibitor treatment” value in the data set on AIMP2-DX2 protein is listed as “decreased”. In addition, the “increase in cell growth by AIMP2-DX2” value in data set [1] is listed as “No increase in cell growth by AIMP2-DX2 was observed”.

As for `Cc1ccc(S(=O)(=O)N[C@@H](Cc2c[nH]c3ccccc23)C(=O)Nc2ccc(N3CCOCC3)cc2)cc1` [BC-DXI-495], the “effect on lung cancer cell A549 (cell activity, MTT)” value with A549 (Lung cancer cells) is given as “only lung cancer cells induce apoptosis”. In addition, the “growth of cancer cells (tumor volume)” value in the data set with H460 cells xenograft (50 mg/kg, 5 times a week, 10 times in total, compared with Taxol 15 mpk) is on record as “inhibited to a degree similar to that of the control group Taxol”. In addition, in the data set with H460 cells xenograft (50 mg/kg, tumors separated and weighed at end of experiment), the tumor weight result is “tumor suppressive effect was also confirmed in the tumor weight”. Further, in the data set on H460 cells xenograft (during the course of the experiment), the “body weight of mice” value is given as “no effect on the body weight”. In addition, the “effect on normal lung cell WI-26 (cell activity, MTT)” value in data set [2] is on record as “without any effect on normal cells”.
